Reference: patent US11446290B2, “Treatment of pain with serotonin-3 receptor agonist” (priority 2017, dated 2022)

Legend:
Assay type in all cases: in vivo
Male ddY mice [1] = assay: Experiment 3: therapeutic effects on pain derived from an emotional component (conditioned pain, saline injection at day 4); details: for therapeutic effects on pain derived from an emotional component: experiments using a similar method, dose not given; for therapeutic effect on pain derived from an emotional component: foot licking of uninjected foot and biting for 5 minutes, FIG. 3
Male ddY mice [2] = assay: Experiment 1: therapeutic effects on pain, foot licking and biting after formalin administration
Male ddY mice [3] = assay: Experiment 4: effect on amount of activity (supermex); details: measured for 5 minutes after 30 minutes, FIG. 4
Text: The following Experiments 1 to 5 have been carried out according to the method described in literatures (M Nakamura-Kitamura et al. Brain Research 1406 (2011), 8-17; and M Nakamura-Kitamura et al. Pain Research 27 (2012), 153-164) with minor modifications.
Male ddY mice of 5 weeks old (Japan SLC) were used in the experiments. Regarding the environment context as external senses and sensory stimuli such as tactile sense, visual sense, and feeling, a black cylindrical polypropylene box (diameter: 9.5 cm, height: 7 cm, with a round petri dish having a diameter of 8.5 cm at the bottom) and a translucent polypropylene box (14 cm (length)×9.5 cm (width)×5 cm (height), with a reticular plate at the floor) were used.
In order to study the effect of Compound A on the amount of activity, Compound A (5 mg/kg or 10 mg/kg) or vehicle (i.e., saline comprising 5% DMSO) was intraperitoneally administered to each mouse, and after 30 minutes, the amount of activity of the mouse was measured for 5 minutes using supermex (Muromachi Kikai Co., Ltd.). In the experiment, the vehicle administration group consisted of 7 mice, the Compound A (5 mg/kg) administration group consisted of 7 mice, and the Compound A (10 mg/kg) administration group consisted of 6 mice.

Male ddY mice [4] = assay: Experiment 5: therapeutic effects on acute pain, formalin test phase 1 and phase 2; details: 1, 5, 10 mg/kg i.p. 30 minutes before formalin

## Cl.N=C(N)NC(=N)Nc1cccc(Cl)c1 [Compound B, m-chlorophenylbiguanide hydrochloride]
Male ddY mice [1]
  therapeutic effects on pain derived from an emotional component: showed therapeutic effects

## Cl.Cn1cc(C(=O)C(=O)N[C@H]2CN3CCC2CC3)c2ccccc21 [G, (R)—N-(1-azabicyclo[2.2.2]oct-3-yl)-2-(1-methyl-1H-indol-3-yl)-2-(1-methyl-1H-indol-3-yl)-2-oxoacetamide hydrochloride]
Male ddY mice [1]
  therapeutic effects on pain derived from an emotional component: showed therapeutic effects

## Cc1[nH]c2ccc(O)cc2c1CCN.Cl [Compound F, 2-methyl-5-hydroxytryptamine hydrochloride]
Male ddY mice [1]
  therapeutic effects on pain derived from an emotional component: showed therapeutic effects

## NC1CCN(c2cccc(Cl)n2)CC1 [Compound A, 1-(6-chloropyridin-2-yl)piperidin-4-amine]
Male ddY mice [2]; 5 mg/kg intraperitoneally 30 minutes before formalin (0.67%, 20 μL), measured for 5 minutes, FIG. 1
  foot licking and biting caused by formalin: significantly suppress
Male ddY mice [2]; mouse, in vivo
  therapeutic effect on pain compared to existing drugs: more excellent therapeutic effect on pain as compared to the existing drugs
Male ddY mice [1]; 5 mg/kg intraperitoneally 30 minutes before saline at day 4
  therapeutic effect on pain derived from an emotional component: very strong therapeutic effect
Male ddY mice [1]; 10 mg/kg intraperitoneally 30 minutes before saline at day 4
  therapeutic effect on pain derived from an emotional component: very strong therapeutic effect
Male ddY mice [1]; mouse, in vivo
  therapeutic effect on pain derived from an emotional component compared to each existing drug: significantly excellent therapeutic effect as compared to each existing drug
Male ddY mice [3]; 5 mg/kg intraperitoneal
  effect on the amount of activity: no effect
Male ddY mice [3]; 10 mg/kg intraperitoneal
  effect on the amount of activity: no effect
Male ddY mice [4]; 0 to 5 minutes after formalin, FIG. 5
  foot licking and biting caused by formalin, phase 1: dose-dependently and significantly suppress
Male ddY mice [4]; 5 to 30 minutes after formalin, FIG. 6
  foot licking and biting caused by formalin, phase 2: dose-dependently and significantly suppress

## Cl.N=C(N)NC(=N)Nc1ccccc1 [Compound C, 1-phenylbiguanide hydrochloride]
Male ddY mice [1]
  therapeutic effects on pain derived from an emotional component: showed therapeutic effects
